{"source": "patent US20260191811A1", "about": "“COMBINATION OF CANNABIDIOL AND A PPAR AGONIST” (priority 2020, published 2026)", "key": {"[1]": {"system": "dopamine neurons in the ventral tegmental area (VTA)", "test": "Electrophysiology: VTA dopamine neuron recording after intra-NAc infusion", "assay_type": "in vivo, rats", "experimental": "Three experiments were run of this type. All included a vehicle. In addition, the components were as follows: • Experiment 1: • 100 ng CBD; 100 ng CBD+100 ng T007; 100 ng T007 • Experiment 2: • 50 ng CBD; 0.5 nmol n−3; 50 ng CBD+0.5 nmol n−3 • Experiment 3: • 1 ng CBD; 0.25 nmol n−3; 1 ng CBD+0.25 nmol n−3; 1 ng CBD+0.25 nmol n−3+100 ng T007 • In the above: • CBD=cannabidiol • T007=T0070907 (PPARg antagonist) • n−3=omega-3\nThe omega-3 formulation includes equal amounts of DHA and EPA. Two doses were used in this study. 0.5 nmol n−3 is made up of 0.5 nmol DHA and 0.5 nmol EPA. 0.25 nmol n−3 is made up of 0.25 nmol DHA and 0.25 nmol EPA.\nIn this procedure, rats were anesthetized with urethane. An electrode was used to record the baseline frequency of dopamine neurons in the ventral tegmental area (VTA) for 5 minutes. After the baseline recording, combinations of CBD, omega-3, and T007 (a PPARg antagonist) were infused into the nucleus accumbens (NAc).\nThe post-infusion frequency of that neuron was compared to its pre-infusion frequencies.\nOne of the characteristics of dopamine cells is that they have a tonic mode of firing and a burst mode of firing. Therefore, both the frequency and burst changes following infusions were analyzed. FIG. 1 looks at the frequency of VTA dopamine cells. The Y-axis is frequency (% Baseline). […] This means that after an intra-NAc infusion of 100 ng CBD, the dopamine cell would decrease in frequency about 15%.\nFIG. 2 looking at difference in burst percentage. A burst is a group of signals occurring in a short period of time. Specifically, in this experiment, a burst is defined to be an event where 2 spikes occur within a timespan of 80 ms. […] As such, the number of bursts that occurred during pre-infusion was recording and the number of spikes that occurred in those bursts was determined. The number of those spikes occurring in those bursts was divided by the total number of spikes that occurred during the pre-infusion recording The same was done for the post-infusion recording and the difference between these 2 values was determined."}, "rats [2]": {"system": "rats", "test": "Light dark box", "assay_type": "in vivo", "conditions": "for time to make the second transition back into the light box: Experiment 1, FIG. 16, 100 ng T007", "experimental": "In these experiments, the following was measured: • 1. First transition to the dark box • 2. Second transition to the light box • 3. Total number of transitions • 4. Time spent in the light box\nOne half of the box is open at the top and is brightly lit. There is an opening to the dark-box that is covered by a lid.\nRats would prefer to be in the dark box and would be anxious about going into the light box.\nFollowing the infusion, the rate is placed in the light box facing away from the opening to the dark box. A 10 minute recording is made. During these 10 minutes, measurements are made of four things: • 1. The time it takes for the rat to make the first transition into the dark box • 2. The time it takes for the rat to make the second transition from the dark box back into the light box • 3. Number of transitions between boxes • 4. Time spent in light box\nTherefore, it would be expected than less anxious rats would take a longer time to make the first transition into the dark box, spend less time to make the second transition into the light box, make more transitions between boxes, and spend more time in the light box."}, "rats [3]": {"system": "rats", "test": "Elevated plus maze", "assay_type": "in vivo", "conditions": "intra-NAc; for number of entries into the open arms: Experiment 3, FIG. 13", "experimental": "In these experiments, the following was measured: • 1. Time in open arms • 2. Entries into open arms\nIn these experiments, the apparatus of FIG. 7 was used.\nAs shown, the apparatus includes 2 open arms and 2 closed arms that form a plus shape. Rats feel more secure in closed spaces and thus it would be expected that more anxious rats would spend more time in the closed arms and less time on the open arms.\nBefore each test, the same doses of drugs used in the electrophysiology experiments were infused.\nThe rat was then placed in the middle of the apparatus, facing into the closed arms and recorded for 10 minutes.\nThe number of entries into the open arms and the total time spent in the open arms was recorded. Less anxious rats would be expected to make more entries into the open arms and spend more time there as well."}, "rats [4]": {"system": "rats", "test": "Olfactory fear conditioning", "assay_type": "in vivo", "conditions": "Experiment 3, FIG. 36, 1 ng CBD, 0.25 nmol omega-3", "description": "The olfactory fear conditioning protocol is for measurement of the formation of fear memory. This protocol lasts three days. On day 1, the rat is habituated to two boxes (one with a striped background and one with a polka dot back ground).\nOn day 2, the rat receives a drug infusion and is placed into one of the boxes (previously assigned as the “shock box”). While in the box, the rat is exposed to 2 odours (peppermint and almond). The rat is exposed to one odour followed by the other odour 5 times. One of these odours were previously assigned as the “shock” odour (CS+) such that after exposure to the “shock” odour, the rat would receive a foot shock. There was no foot shock following exposure to the “safe” odour (CS−). On day 3, the rat was placed in the safe box. They were exposed to each odour (both CS+ and CS−) one at a time for 5 minutes. During the 5 minutes, freezing behaviour was recorded.\nIt would be expected that CBD would block the formation of fear memory and the rats would freeze a similar amount to CS+ and CS−.\n2-way repeated measures ANOVA was performed for the three experiments. With reference to FIG. 34, there was no significant interaction effect by group x CS (p=0.209)."}, "[5]": {"conditions": "Experiment 3, FIG. 5, 1 ng CBD, 0.25 nmol omega-3, 1 ng CBD+0.25 nmol omega-3, combination+100 ng T007, intra-NAc, compared to vehicle"}, "[6]": {"conditions": "100 ng CBD, 100 ng CBD+100 ng T007"}, "[7]": {"conditions": "Experiment 3, FIG. 24, 1 ng CBD, 0.25 nmol omega-3, combination, combination+100 ng T007"}, "[8]": {"conditions": "first experiment, FIG. 17, 100 ng CBD, 100 ng CBD+100 ng T007"}, "[9]": {"conditions": "first experiment, FIG. 18, 100 ng CBD, 100 ng CBD+100 ng T007"}, "[10]": {"conditions": "Experiment 3, FIG. 12, 1 ng CBD, 0.25 nmol omega-3, combination, combination+100 ng T007"}, "[11]": {"conditions": "1 ng CBD, 0.25 nmol omega-3, combination, combination+100 ng T007"}}, "data": [{"smiles": "C=C(C)[C@@H]1CCC(C)=C[C@H]1c1c(O)cc(CCCCC)cc1O", "note": "[CBD, cannabidiol]", "values": [{"measurement": "frequency (% Baseline) of VTA dopamine cells", "setting": "[1]; Experiment 1, FIG. 1, 100 ng CBD intra-NAc infusion, post- vs pre-infusion", "value": "about 85%"}, {"measurement": "VTA dopamine frequency", "setting": "[1]; Experiment 1, FIG. 1, 100 ng CBD, 100 ng CBD+100 ng T007, 100 ng T007, intra-NAc", "value": "decreasing trend"}, {"measurement": "decrease in frequency of the dopamine cell", "setting": "[1]; Experiment 1, FIG. 1, after intra-NAc infusion of 100 ng CBD", "value": "about 15%"}, {"measurement": "difference in burst percentage (VTA DA bursts)", "setting": "[1]; Experiment 1, FIG. 2, 100 ng CBD, 100 ng CBD+100 ng T007, 100 ng T007, intra-NAc", "value": "very slight decrease"}, {"measurement": "VTA dopamine activity", "setting": "[1]; Experiment 2, FIG. 3, 50 ng CBD, 0.5 nmol omega-3, 50 ng CBD+0.5 nmol omega-3, intra-NAc", "value": "ineffective"}, {"measurement": "VTA dopamine activity", "setting": "[1]; [5]", "value": "not different from vehicle"}, {"measurement": "time to make the second transition back into the light box", "setting": "rats [2]; [6]", "value": "significantly decreased"}, {"measurement": "time to make the second transition", "setting": "rats [2]; Experiment 2, FIG. 20, 50 ng CBD, 0.5 nmol omega-3, 50 ng CBD+0.5 nmol omega-3", "value": "not effective"}, {"measurement": "time to make the second transition", "setting": "rats [2]; [7]", "value": "ineffective"}, {"measurement": "number of transitions between boxes", "setting": "rats [2]; Experiment 3, FIG. 25, 1 ng CBD, 0.25 nmol omega-3, 1 ng CBD+0.25 nmol omega-3", "value": "ineffective"}, {"measurement": "time spent in the light box", "setting": "rats [2]; Experiment 3, FIG. 26, 1 ng CBD, 0.25 nmol omega-3, 1 ng CBD+0.25 nmol omega-3", "value": "ineffective"}, {"measurement": "number of transitions between boxes", "setting": "rats [2]; [8]", "value": "significantly increased"}, {"measurement": "time spent in the light box", "setting": "rats [2]; [9]", "value": "significantly increased"}, {"measurement": "time spent in open arms", "setting": "rats [3]; Experiment 1, FIG. 8, 100 ng CBD, 100 ng CBD+100 ng T007, 100 ng T007, 10 minutes", "value": "slight increase"}, {"measurement": "number of entries into open arms", "setting": "rats [3]; Experiment 1, FIG. 9, 100 ng CBD, 100 ng CBD+100 ng T007, 100 ng T007, 10 minutes", "value": "slight increase"}, {"measurement": "time spent in open arms", "setting": "rats [3]; Experiment 2, FIG. 10, 50 ng CBD, 0.5 nmol omega-3, 50 ng CBD+0.5 nmol omega-3", "value": "not effective"}, {"measurement": "number of entries into open arms", "setting": "rats [3]; Experiment 2, FIG. 11, 50 ng CBD, 0.5 nmol omega-3, 50 ng CBD+0.5 nmol omega-3", "value": "not effective"}, {"measurement": "time spent in open arms", "setting": "rats [3]; [10]", "value": "ineffective"}, {"measurement": "number of entries into the open arms", "setting": "rats [3]; [11]", "value": "not effective"}, {"measurement": "freezing time compared to vehicle", "setting": "rats [4]; 1 ng CBD+0.25 nmol omega-3", "value": "not different from vehicle"}]}, {"smiles": "O=C(Nc1ccncc1)c1cc([N+](=O)[O-])ccc1Cl", "note": "[T007]", "values": [{"measurement": "VTA dopamine activity", "setting": "[1]; [5]", "value": "blocked"}, {"measurement": "time to make the second transition back into the light box", "setting": "rats [2]; [6]", "value": "blocked"}, {"measurement": "time to make the second transition", "setting": "rats [2]; [7]", "value": "blocked"}, {"measurement": "number of transitions between boxes", "setting": "rats [2]; [8]", "value": "blocked"}, {"measurement": "time spent in the light box", "setting": "rats [2]; [9]", "value": "blocked"}, {"measurement": "time spent in open arms", "setting": "rats [3]; [10]", "value": "blocked"}, {"measurement": "number of entries into the open arms", "setting": "rats [3]; [11]", "value": "blocked"}, {"measurement": "difference between the freezing time to CS+ and CS− (fear memory formation)", "setting": "rats [4]; combination, combination+100 ng T007", "value": "blocked slightly"}]}]}
